According to PubChem BioAssay (NCI):
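Each compound was tested at five concentrations against cells in 96-well plates for 48 hours. Abbreviation: GI50, concentration required for 50% inhibition of growth. TGI denotes the concentration required for complete inhibition of growth.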

Columns and labels:
Experiment in all cases: inhibition of tumour cell growth, NCI panel, 48 h
[1] = system: OVCAR-4 ovarian
[2] = system: MCF7 breast
[3] = system: M14 melanoma
[4] = system: NCI-H460 lung
[5] = system: DU-145 prostate
[6] = system: SK-MEL-5 melanoma
[7] = system: SN12C renal
[8] = system: SW-620 colon
[9] = system: OVCAR-3 ovarian
[10] = system: HCT-15 colon
[11] = system: RPMI-8226 leukemia
[12] = system: 786-0 renal
[13] = system: MOLT-4 leukemia
[14] = system: NCI/ADR-RES ovarian
[15] = system: OVCAR-8 ovarian
[16] = system: PC-3 prostate
[17] = system: SK-MEL-2 melanoma
[18] = system: SF-295 CNS
[19] = system: SF-268 CNS
[20] = system: K-562 leukemia
[21] = system: HCT-116 colon
[22] = system: NCI-H522 lung
[23] = system: T-47D breast
[24] = system: HL-60(TB) leukemia
[25] = system: BT-549 breast
[26] = system: EKVX NSCLC
[27] = system: OVCAR-5 ovarian
[28] = system: SK-OV-3 ovarian
[29] = system: SF-539 CNS
[30] = system: MDA-MB-435
[31] = system: CAKI-1 renal
[32] = system: UACC-257 melanoma
[33] = system: HT29 colon
[34] = system: KM12 colon
[35] = system: UO-31 renal
[36] = system: SNB-75 CNS
[37] = system: HOP-62 NSCLC
[38] = system: HCC-2998 colon
[39] = system: A498 renal
[40] = system: NCI-H226 lung
[41] = system: SR leukemia
[42] = system: U251 CNS
[43] = system: A549 NSCLC
[44] = system: RXF 393 renal
[45] = system: SK-MEL-28 melanoma
[46] = system: TK-10 renal
[47] = system: COLO 205 colon
[48] = system: HOP-92 NSCLC
[49] = system: ACHN renal
[50] = system: IGROV1 ovarian
[51] = system: SNB-19 CNS
[52] = system: UACC-62 melanoma
[53] = system: CCRF-CEM leukemia
[54] = system: LOX IMVI melanoma
[55] = system: MALME-3M melanoma
[56] = system: HS 578T breast
[57] = system: MDA-MB-231 breast

In the case of `Nc1nc(N)c2c(n1)NC(c1ccc(F)cc1)CC(c1ccc(Nc3nc(NCCO)nc(Nc4ccc(Cl)cc4)n3)cc1)=N2` (stereo not given), the GI50 [1] is reported as 1.93 µM, the TGI [1] is reported as 6.43 µM and the GI50 [2] is reported as 0.956 µM. For the same molecule, the TGI [2] was 2.43 µM, the GI50 [3] was 1.66 µM and the TGI [3] was 3.3 µM. For the same molecule, the GI50 [4] was 1.71 µM, the TGI [4] was 3.63 µM and the GI50 [5] was 1.75 µM. The TGI [5] was 3.5 µM, the GI50 [6] was 1.46 µM and the TGI [6] was 2.78 µM. It also gave a GI50 [7] of 2.08 µM, a TGI [7] of 5.19 µM and a GI50 [8] of 1.6 µM. For the same molecule, the TGI [8] was 3.27 µM, the GI50 [9] was 1.58 µM and the TGI [9] was 3.28 µM. For the same molecule, the GI50 [10] was 1.03 µM, the TGI [10] was 2.84 µM and the GI50 [11] was 1.01 µM. For the same molecule, the TGI [11] was 3.24 µM, the GI50 [12] was 1.36 µM and the TGI [12] was 3.11 µM. It also gave a GI50 [13] of 0.532 µM, a TGI [13] of 3.47 µM and a GI50 [14] of 7.73 µM. The TGI [14] was > 100 µM, the GI50 [15] was 1.16 µM and the TGI [15] was 2.81 µM. It also gave a GI50 [16] of 1.72 µM, a TGI [16] of 11.4 µM and a GI50 [17] of 1.67 µM. For the same molecule, the TGI [17] was 3.1 µM, the GI50 [18] was 1.96 µM and the TGI [18] was 3.75 µM. The GI50 [19] was 2.85 µM, the TGI [19] was 12.3 µM and the GI50 [20] was 0.489 µM. For the same molecule, the TGI [20] was > 100 µM, the GI50 [21] was 1.2 µM and the TGI [21] was 2.5 µM. It also gave a GI50 [22] of 1.43 µM, a TGI [22] of 2.97 µM and a GI50 [23] of 1.27 µM. For the same molecule, the TGI [23] was 3.2 µM, the GI50 [24] was 0.863 µM and the TGI [24] was 3.51 µM. The GI50 [25] was 1.56 µM, the TGI [25] was 3.17 µM and the GI50 [26] was 1.66 µM. It also gave a TGI [26] of 5.35 µM, a GI50 [27] of 5.1 µM and a TGI [27] of 24.4 µM. The GI50 [28] was 12.9 µM, the TGI [28] was 25.5 µM and the GI50 [29] was 1.56 µM. The TGI [29] was 3.15 µM, the GI50 [30] was 1.7 µM and the TGI [30] was 3.55 µM. For the same molecule, the GI50 [31] was 6.14 µM, the TGI [31] was 39.6 µM and the GI50 [32] was 1.85 µM. For the same molecule, the TGI [32] was 3.52 µM, the GI50 [33] was 1.42 µM and the TGI [33] was 3.15 µM. For the same molecule, the GI50 [34] was 1.68 µM, the TGI [34] was 3.71 µM and the GI50 [35] was 3.07 µM. It also gave a TGI [35] of 20.4 µM, a GI50 [36] of 3.35 µM and a TGI [36] of 16 µM. The GI50 [37] was 1.77 µM, the TGI [37] was 4.3 µM and the GI50 [38] was 1.61 µM. It also gave a TGI [38] of 3.05 µM, a GI50 [39] of 3.72 µM and a TGI [39] of 15.3 µM. It also gave a GI50 [40] of 2.49 µM, a TGI [40] of 7.11 µM and a GI50 [41] of 0.672 µM. For the same molecule, the TGI [41] was 4.75 µM, the GI50 [42] was 1.37 µM and the TGI [42] was 2.73 µM. For the same molecule, the GI50 [43] was 3.12 µM, the TGI [43] was > 100 µM and the GI50 [44] was 1.17 µM. The TGI [44] was 2.63 µM, the GI50 [45] was 1.7 µM and the TGI [45] was 3.18 µM. The GI50 [46] was 4.61 µM, the TGI [46] was 15.5 µM and the GI50 [47] was 1.49 µM. It also gave a TGI [47] of 2.94 µM, a GI50 [48] of 1.25 µM and a TGI [48] of 3.54 µM. For the same molecule, the GI50 [49] was 3.22 µM and the TGI [49] was 17.3 µM.
For `c1ccc2c(NCCCn3ccnc3)c3oc4ccccc4c3nc2c1`, the GI50 [1] was 2.12 µM, the TGI [1] was 7.47 µM and the GI50 [2] was 1.78 µM. The TGI [2] was 7.62 µM, the GI50 [3] was 1.89 µM and the TGI [3] was 3.56 µM. The GI50 [4] was 1.27 µM, the TGI [4] was 8.27 µM and the GI50 [5] was 2.63 µM. For the same molecule, the TGI [5] was 15.5 µM, the GI50 [6] was 2.27 µM and the TGI [6] was 5.14 µM. For the same molecule, the GI50 [7] was 1.7 µM, the TGI [7] was 11 µM and the GI50 [50] was 2.82 µM. The TGI [50] was 10.8 µM, the GI50 [8] was 0.792 µM and the TGI [8] was 10.9 µM. For the same molecule, the GI50 [9] was 3.38 µM, the TGI [9] was > 100 µM and the GI50 [10] was 1.79 µM. It also gave a TGI [10] of 10.6 µM, a GI50 [11] of 2.04 µM and a TGI [11] of 5.62 µM. It also gave a GI50 [12] of 2.57 µM, a TGI [12] of 13.2 µM and a GI50 [51] of 2.6 µM. The TGI [51] was 14.2 µM, the GI50 [52] was 2.01 µM and the TGI [52] was 4.62 µM. It also gave a GI50 [13] of 0.524 µM, a TGI [13] of 71.8 µM and a GI50 [53] of 2.35 µM. It also gave a TGI [53] of 18 µM, a GI50 [14] of 1.87 µM and a TGI [14] of 6.18 µM. It also gave a GI50 [15] of 1.58 µM, a TGI [15] of 4.55 µM and a GI50 [16] of 2.08 µM. For the same molecule, the TGI [16] was 6.85 µM, the GI50 [54] was 1.35 µM and the TGI [54] was 3.3 µM. For the same molecule, the GI50 [17] was 1.85 µM, the TGI [17] was 3.6 µM and the GI50 [18] was 2.53 µM. For the same molecule, the TGI [18] was 10.5 µM, the GI50 [19] was 2.2 µM and the TGI [19] was 12.1 µM. For the same molecule, the GI50 [20] was 1.81 µM, the TGI [20] was > 100 µM and the GI50 [55] was 2.66 µM. The TGI [55] was 6.23 µM, the GI50 [21] was 0.518 µM and the TGI [21] was 10.3 µM. The GI50 [22] was 1.58 µM, the TGI [22] was 3.63 µM and the GI50 [23] was 2.31 µM. For the same molecule, the TGI [23] was 8.53 µM, the GI50 [56] was 2.79 µM and the TGI [56] was 14 µM. The GI50 [24] was 2.5 µM, the TGI [24] was 7.72 µM and the GI50 [25] was 1.98 µM. The TGI [25] was 4.75 µM, the GI50 [26] was 2.8 µM and the TGI [26] was 11 µM. It also gave a GI50 [27] of 1.99 µM, a TGI [27] of 6.54 µM and a GI50 [28] of 2.3 µM. It also gave a TGI [28] of 6.85 µM, a GI50 [29] of 1.71 µM and a TGI [29] of 3.94 µM. It also gave a GI50 [30] of 2.13 µM, a TGI [30] of 5.2 µM and a GI50 [31] of 1.7 µM. The TGI [31] was 6.56 µM, the GI50 [32] was 2.35 µM and the TGI [32] was 6 µM. The GI50 [33] was 1.05 µM, the TGI [33] was 3.08 µM and the GI50 [34] was 2.51 µM. The TGI [34] was > 100 µM, the GI50 [35] was 1.42 µM and the TGI [35] was 3.28 µM. The GI50 [36] was 1.85 µM, the TGI [36] was 4.93 µM and the GI50 [37] was 1.59 µM. For the same molecule, the TGI [37] was 4.3 µM, the GI50 [38] was 1.36 µM and the TGI [38] was 2.99 µM. It also gave a GI50 [39] of 2.89 µM, a TGI [39] of 9.13 µM and a GI50 [40] of 1.94 µM. The TGI [40] was 4.7 µM, the GI50 [41] was 1.73 µM and the TGI [41] was > 100 µM. It also gave a GI50 [42] of 2.33 µM, a TGI [42] of 10.3 µM and a GI50 [44] of 1.41 µM. The TGI [44] was 3.23 µM, the GI50 [45] was 2.15 µM and the TGI [45] was 4.32 µM. It also gave a GI50 [57] of 2.04 µM, a TGI [57] of 7.73 µM and a GI50 [46] of 3.29 µM. For the same molecule, the TGI [46] was 8.62 µM, the GI50 [47] was 1.42 µM and the TGI [47] was 3.04 µM. It also gave a GI50 [48] of 1.11 µM, a TGI [48] of 3.68 µM and a GI50 [49] of 0.942 µM. It also gave a TGI [49] of 10.5 µM.
